The results in this text go back to patent US20060009918A1, “Methods and materials for enhancing the effects of protein modulators” (priority 2004, published 2006).

pKd: −log10 of the molar value.

This experiment has as its target T1, carbonic anhydrase (bovine erythrocyte, Sigma Chemical Company, mixture of isozymes) (Bos taurus, UniProt P00921).
T1 construct: purchased Sigma Chemical Company; host or cells: bovine erythrocyte
Put plainly: Binding constants by isothermal titration calorimetry. How it is done: The binding constants of these complexes with carbonic anhydrase (bovine erythrocyte, Sigma Chemical Company, mixture of isozymes) were determined employing isothermal titration calorimetry (25 mM HEPES buffer, pH=7.0), and the results are presented in Table 1.
The titration procedures employing isothermal titration calorimetry were carried out employing the instrument ITC-4200 (Calscorp Inc., Provo, Utah). The reference cell (volume: 1.32 mL) was filled with 25 mM HEPES buffer, pH=7.0. Carbonic anhydrase was taken in the sample cell (1.32 mL, […] protein in 25 mM HEPES buffer, pH=7.0). The copper complexes (1 mM) were dissolved in the same buffer and were added to the enzyme solution (42×5 μL injections). Heats of dilution for the complexes were separately determined by injecting the solution of the complexes in buffer (taken in the sample cell). The heats of dilution were subtracted from the titration data files, and the resultant data were processed by the software provided by the manufacturer (Bind Works 3.0).
In general terms: ITC needs no label: the signal is the heat of the interaction.

Setting [1] is: isothermal titration calorimetry, 25 mM HEPES buffer, pH=7.0.

T1 sequence (P00921 2-260 limits assumed): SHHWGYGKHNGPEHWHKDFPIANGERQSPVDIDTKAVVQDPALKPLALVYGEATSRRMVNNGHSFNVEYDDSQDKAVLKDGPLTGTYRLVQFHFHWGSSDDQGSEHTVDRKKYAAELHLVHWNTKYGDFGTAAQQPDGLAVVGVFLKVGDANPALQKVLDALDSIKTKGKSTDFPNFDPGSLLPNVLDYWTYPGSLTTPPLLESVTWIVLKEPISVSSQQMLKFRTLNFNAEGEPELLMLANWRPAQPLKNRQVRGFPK

For `NS(=O)(=O)c1ccccc1` [Control 6, Benzene sulfonamide, reference compound], the pKd (carbonic anhydrase, summary statement) was 3.92. Under setting [1], the Binding constant entry is given as “(9.0 ± 0.1) × 10^3” and the Enthalpy is -31.2 ± 1.6 kcal/mol. Besides, the “affinity for the enzyme (in words)” value (titration with the enzyme) was “weak affinity”.

What is called pKd is the negative decadic logarithm of the Kd, by convention in mol/L.
